Results published in US12239134B2, “Plant antimicrobial compositions including an emulsifier and/or ozone and methods of use” (Arizona Board of Regents on Behalf of The University of …, priority 2018, dated 2025).

Tested on: Salmonella Newport
Assay: Biofilm formation on food contact surface coupons, direct plating
Assay type: cell-based, Salmonella enterica
Details: two-minute treatment
Description: A protocol based on direct plating was also evaluated for testing the biofilm formation by Salmonella or L. monocytogenes. Biofilms were formed on three different food contact surface coupons (HDPE, Buna-N rubber, and 316 stainless steel) for up to 3 days in 35 mm mini-petri dishes. Biofilms were formed using a 1:10 diluted TSB solution (10 mL) with either S. enterica or L. monocytogenes inoculum (100 μL). The diluted TSB was changed every 16-18 hours with new 1:10 diluted TSB (10 mL). Coupons were removed for sampling and enumeration of strongly attached bacteria at three different time points (Day 0, 1, and 3). The coupons were rinsed with deionized water five times to remove planktonic cells. Then the coupons were immersed in 10 mL of BPW. The coupons were sonicated for 2 minutes using different settings (Tables 11 and 12) for each organism. After sonication, the solution was serially diluted and plated on Tryptic Soy Agar (TSA). Plates were incubated at 37° C. for 24-48 hours. The colonies were counted and the colony forming units were determined for the various sonication settings, so that the appropriate setting with the most recovery could be determined. […] These settings were used in further experiments to recover the bacterial cells from coupons during sampling and enumeration (by spread plating) of the bacteria in biofilms.
The reduction in bacterial biofilm formation was also tested using a direct plating method. Biofilms were formed on six different food contact surface coupons (HDPE, Buna-N rubber, PC, PVC, and stainless steel 304 and 316) in separate 35 mm mini-petri dishes and evaluated at three different time points (Day 0, 1, and 3). Biofilms were formed using a 1:10 diluted TSB solution (10 mL) with either S. enterica or L. monocytogenes inoculum (100 μL). The coupons were also washed and treated with antimicrobial solutions containing the plant-based emulsifier and the essential oil/plant extracts at various concentrations. The diluted TSB was changed every 16-18 hours with new 1:10 diluted TSB (10 mL). The coupons were rinsed in the antimicrobial solution before adding them to the petri dishes containing the fresh, diluted TSB. After their specific time points, coupons were removed aseptically using sterile forceps from the petri dish. The coupons were rinsed by submerging in 25 mL of sterile deionized H2O and swirled five times to remove planktonic cells. After rinsing, they were placed into a new petri dish immersed in 10 mL of BPW. The coupons were sonicated for 2 minutes on ice using different settings for each organism. After sonication, the sonicated solution was serially diluted using 0.1% peptone water and spread plated on TSA in duplicate. Plates were incubated overnight at 37° C. for 24-48 hours, after which, the colonies were counted, to establish the efficacy of the antimicrobial solutions (Tables 17-25).

## CC(C)=CCCC(C)=CC=O [Citral, citral]
0.5% with 0.0001% saponin microemulsion, Day 0, 304 SS
  Survivors of Salmonella Newport on food contact surface: 4.32 Log CFU/mL
0.5% with 0.0001% saponin microemulsion, Day 0, 316 SS
  Survivors of Salmonella Newport on food contact surface: 4.36 Log CFU/mL
0.5% with 0.0001% saponin microemulsion, Day 0, Buna N
  Survivors of Salmonella Newport on food contact surface: 4.06 Log CFU/mL
0.5% with 0.0001% saponin microemulsion, Day 0, HDPE
  Survivors of Salmonella Newport on food contact surface: 3.44 Log CFU/mL
0.5% with 0.0001% saponin microemulsion, Day 0, PC
  Survivors of Salmonella Newport on food contact surface: 3.25 Log CFU/mL
0.5% with 0.0001% saponin microemulsion, Day 0, PVC
  Survivors of Salmonella Newport on food contact surface: 3.49 Log CFU/mL
0.5% with 0.0001% saponin microemulsion, Day 1, 304 SS
  Survivors of Salmonella Newport on food contact surface: 4.52 Log CFU/mL
0.5% with 0.0001% saponin microemulsion, Day 1, 316 SS
  Survivors of Salmonella Newport on food contact surface: 4.52 Log CFU/mL
0.5% with 0.0001% saponin microemulsion, Day 1, Buna N
  Survivors of Salmonella Newport on food contact surface: 4.34 Log CFU/mL
0.5% with 0.0001% saponin microemulsion, Day 1, HDPE
  Survivors of Salmonella Newport on food contact surface: 4.24 Log CFU/mL
0.5% with 0.0001% saponin microemulsion, Day 1, PC
  Survivors of Salmonella Newport on food contact surface: 4.20 Log CFU/mL
0.5% with 0.0001% saponin microemulsion, Day 1, PVC
  Survivors of Salmonella Newport on food contact surface: 4.27 Log CFU/mL
0.5% with 0.0001% saponin microemulsion, Day 3, 304 SS
  Survivors of Salmonella Newport on food contact surface: 4.20 Log CFU/mL
0.5% with 0.0001% saponin microemulsion, Day 3, 316 SS
  Survivors of Salmonella Newport on food contact surface: 4.36 Log CFU/mL
0.5% with 0.0001% saponin microemulsion, Day 3, Buna N
  Survivors of Salmonella Newport on food contact surface: 4.20 Log CFU/mL
0.5% with 0.0001% saponin microemulsion, Day 3, HDPE
  Survivors of Salmonella Newport on food contact surface: 3.56 Log CFU/mL
0.5% with 0.0001% saponin microemulsion, Day 3, PC
  Survivors of Salmonella Newport on food contact surface: 3.52 Log CFU/mL
0.5% with 0.0001% saponin microemulsion, Day 3, PVC
  Survivors of Salmonella Newport on food contact surface: 4.27 Log CFU/mL
0.7% with 0.0001% saponin microemulsion, Day 0, 304 SS
  Survivors of Salmonella Newport on food contact surface: 4.23 Log CFU/mL
0.7% with 0.0001% saponin microemulsion, Day 0, 316 SS
  Survivors of Salmonella Newport on food contact surface: 3.59 Log CFU/mL
0.7% with 0.0001% saponin microemulsion, Day 0, Buna N
  Survivors of Salmonella Newport on food contact surface: 4.52 Log CFU/mL
0.7% with 0.0001% saponin microemulsion, Day 0, HDPE
  Survivors of Salmonella Newport on food contact surface: 2.71 Log CFU/mL
0.7% with 0.0001% saponin microemulsion, Day 0, PC
  Survivors of Salmonella Newport on food contact surface: 3.59 Log CFU/mL
0.7% with 0.0001% saponin microemulsion, Day 0, PVC
  Survivors of Salmonella Newport on food contact surface: 3.24 Log CFU/mL
0.7% with 0.0001% saponin microemulsion, Day 1, 304 SS
  Survivors of Salmonella Newport on food contact surface: 3.36 Log CFU/mL
0.7% with 0.0001% saponin microemulsion, Day 1, 316 SS
  Survivors of Salmonella Newport on food contact surface: 3.24 Log CFU/mL
0.7% with 0.0001% saponin microemulsion, Day 1, Buna N
  Survivors of Salmonella Newport on food contact surface: 3.52 Log CFU/mL
0.7% with 0.0001% saponin microemulsion, Day 1, HDPE
  Survivors of Salmonella Newport on food contact surface: <1 Log CFU/mL
0.7% with 0.0001% saponin microemulsion, Day 1, PC
  Survivors of Salmonella Newport on food contact surface: <1 Log CFU/mL
0.7% with 0.0001% saponin microemulsion, Day 1, PVC
  Survivors of Salmonella Newport on food contact surface: <1 Log CFU/mL
0.7% with 0.0001% saponin microemulsion, Day 3, 304 SS
  Survivors of Salmonella Newport on food contact surface: <1 Log CFU/mL
0.7% with 0.0001% saponin microemulsion, Day 3, 316 SS
  Survivors of Salmonella Newport on food contact surface: <1 Log CFU/mL
0.7% with 0.0001% saponin microemulsion, Day 3, Buna N
  Survivors of Salmonella Newport on food contact surface: <1 Log CFU/mL
0.7% with 0.0001% saponin microemulsion, Day 3, HDPE
  Survivors of Salmonella Newport on food contact surface: <1 Log CFU/mL
0.7% with 0.0001% saponin microemulsion, Day 3, PC
  Survivors of Salmonella Newport on food contact surface: <1 Log CFU/mL
0.7% with 0.0001% saponin microemulsion, Day 3, PVC
  Survivors of Salmonella Newport on food contact surface: <1 Log CFU/mL
1% with 0.0001% saponin microemulsion, Day 0, 304 SS
  Survivors of Salmonella Newport on food contact surface: 3.91 Log CFU/mL
1% with 0.0001% saponin microemulsion, Day 0, 316 SS
  Survivors of Salmonella Newport on food contact surface: 4.13 Log CFU/mL
1% with 0.0001% saponin microemulsion, Day 0, Buna N
  Survivors of Salmonella Newport on food contact surface: 3.26 Log CFU/mL
1% with 0.0001% saponin microemulsion, Day 0, HDPE
  Survivors of Salmonella Newport on food contact surface: 4.45 Log CFU/mL
1% with 0.0001% saponin microemulsion, Day 0, PC
  Survivors of Salmonella Newport on food contact surface: 4.20 Log CFU/mL
1% with 0.0001% saponin microemulsion, Day 0, PVC
  Survivors of Salmonella Newport on food contact surface: 3.89 Log CFU/mL
1% with 0.0001% saponin microemulsion, Day 1, 304 SS
  Survivors of Salmonella Newport on food contact surface: <1 Log CFU/mL
1% with 0.0001% saponin microemulsion, Day 1, 316 SS
  Survivors of Salmonella Newport on food contact surface: <1 Log CFU/mL
1% with 0.0001% saponin microemulsion, Day 1, Buna N
  Survivors of Salmonella Newport on food contact surface: <1 Log CFU/mL
1% with 0.0001% saponin microemulsion, Day 1, HDPE
  Survivors of Salmonella Newport on food contact surface: <1 Log CFU/mL
1% with 0.0001% saponin microemulsion, Day 1, PC
  Survivors of Salmonella Newport on food contact surface: <1 Log CFU/mL
1% with 0.0001% saponin microemulsion, Day 1, PVC
  Survivors of Salmonella Newport on food contact surface: <1 Log CFU/mL
1% with 0.0001% saponin microemulsion, Day 3, 304 SS
  Survivors of Salmonella Newport on food contact surface: <1 Log CFU/mL
1% with 0.0001% saponin microemulsion, Day 3, 316 SS
  Survivors of Salmonella Newport on food contact surface: <1 Log CFU/mL
1% with 0.0001% saponin microemulsion, Day 3, Buna N
  Survivors of Salmonella Newport on food contact surface: <1 Log CFU/mL
1% with 0.0001% saponin microemulsion, Day 3, HDPE
  Survivors of Salmonella Newport on food contact surface: <1 Log CFU/mL
1% with 0.0001% saponin microemulsion, Day 3, PC
  Survivors of Salmonella Newport on food contact surface: <1 Log CFU/mL
1% with 0.0001% saponin microemulsion, Day 3, PVC
  Survivors of Salmonella Newport on food contact surface: <1 Log CFU/mL
